# Test results taken from patent publication EP0520336A2, “Aldehyde derivatives and their use as calpain inhibitors” (FUJIREBIO Inc., priority 1991, dated 1992).
# Target: a-chymotrypsin (Bos taurus, UniProt P00766)
# Assay: Measurement of inhibitory effect on a-chymotrypsin (glutaryl-L-phenylalanine-p-nitroanilide substrate)
# Assay type: biochemical
# Settings: a-chymotrypsin activity, 25 ° C, pH = 7.8
# Description: Test Example 3 Measurement of Inhibitory Effect on Protease other than Calpain
# (2) Measurement of Inhibitory Effect on a-Chymotrypsin
# The inhibitory effect on a-chymotrypsin was measured by a partially modified method of Erlanger, B. F. as described in Ach. Biochem. Biophys. 115, 206-210 (1966). […]
# The mixture was preincubated at 25 ° C for 3 minutes. […] The increase of 405 nm absorbance was measured at 25 ° C with time, and the transition rate (a) of the absorbance per min was calculated.
# The rate (b) of the absorbance of a blank sample treated similarly without any compound dissolved in combined dimethyl sulfoxide and 10% polyoxyethylene 60 hardened castor oil was measured. The inhibition of a-chymotrypsin activity was calculated in accordance with the formula [(b-a)/b] X 100, and the amount of each compound necessary to inhibit a-chymotrypsin activity by 50% [ICso] was calculated according to the method of Probit.
# The inhibitory effect of SUAM-14541, a compound disclosed in Japanese Laid-Open Patent Application 1-121257, on a-chymotrypsin activity was measured for comparison.
smiles,measurement,value
"CC(C)C[C@H](NC(=O)OCc1ccccc1)C(=O)N[C@H](C=O)COCc1ccsc1 [Compound No. 3-6, L-N-benzyloxycarbonylleucine-(2S)-[1-formyl-2-(thiophene-3-ylmethyl)oxy]ethylamide]",IC50,> 100 µM
